Assay results published in paper PMC5132298 (PLoS ONE, 2016).
Converted amounts (≈) assume the structure as drawn.

Columns and labels:
[1] = biological target: T1, ScErg11p6×His (S. cerevisiae lanosterol 14α-demethylase) (Saccharomyces cerevisiae, UniProt P10614); assay: Type II binding (difference spectra) to affinity purified ScErg11p6×His; details: for mode of inhibition: ScErg11p6×His; for Induced spectral shift on ligand binding Wavelength: Soret peak, (-) indicates no significant change in Soret peak wavelength; for [Azole]0.5: azole concentration giving half ΔAmax, 1 µM ScErg11p6×His; for type of binding (difference spectra): azole up to 2 μM, 1 μM ScErg11p6×His
T1 construct: Crystal structures of the full length S. cerevisiae lanosterol 14α-demethylase (ScErg11p6×His); 6×His (hexahistidine); made in house; host or cells: Saccharomyces cerevisiae (AD3Δ overexpression strain, native ERG11 deleted)
Experimental: Type II azole binding is characterised by a shift of the Soret peak from 417 nm to 421–424 nm in ScErg11p6×His and other cytochrome P450s. The type II difference spectra were used to detect and quantitate binding of the inhibitors S-TBZ, R-TBZ, S-PTZ, R-PTZ, S-DPZ, R-DPZ, S-oxo-PTZ and R-oxo-PTZ, FQZ, and PRZ using Ni-NTA affinity purified wild type ScErg11p6×His preparations at 1 μM. Spectral shifts, [Azole]0.5 values, Hill coefficients as well as Type II difference spectra binding curves are shown in S3 Table (selected spectra shown in S2 Fig) and Fig 6, respectively.
Samples of Ni-NTA-agarose affinity purified ScErg11p6×His were eluted with 40 mM histidine instead of imidazole as described by Warrilow et al.. Samples were washed free of the histidine and concentrated by centrifugal filtration using a 50 kDa molecular-weight cut-off Amicon Ultra-4 centrifugal filter (Millipore) to give protein with a Soret peak at 417 nm. Carbon monoxide binding was used to determine the concentration of functional cytochrome P450 for drug binding studies as described previously based on the protocol described by Guengerich et al. Saturation curves for the binding of type II ligands were determined by obtaining difference spectra for functional enzyme at 1 μM as described previously. […] All calculations were carried out using GraphPad Prism 6 Software (GraphPad Prism, San Diego, CA). [Azole]0.5 values were defined as the concentration of the azole drug that gave half ΔAmax.
Hill coefficients and Kd values were obtained by applying the Hill equation as described in Materials and methods. (-) indicates no significant change in Soret peak wavelength on exposure to the ligand. The data presented is a representative set

[2] = test system: S. cerevisiae AD3Δ overexpressing ScErg11p6×His wild type, native ERG11 deleted; assay: MIC50 broth microdilution, AD3Δ strain overexpressing wild type ScErg11p6×His; type: cell-based, Saccharomyces cerevisiae; details: for fold more active than the R enantiomer (MIC50): S versus R enantiomer, MIC50 values for AD3Δ strains
Experimental: (§1) The susceptibility to azole compounds of S. cerevisiae AD3Δ strains overexpressing Erg11p6×His wild type and Y140F/H, but with the native ERG11 deleted, as well as the host strain (AD2Δ) which retained the wild type ERG11 (S2 Table), were measured as MIC50 values (Table 1). […] PTZ has been reported to be a prodrug for DPZ [27]. […] There was a 3.3 fold (0.28 ± 0.02 μM) and a 4.3 fold (1.2 ± 0.2 μM) reduction in susceptibility to S-PTZ in the Y140F and Y140H mutant strains respectively. There was only a 2 fold reduction in susceptibility to R-PTZ in the Y140H mutant strain with no change seen in the Y140F strain. The PTZ metabolite, S-DPZ produced a 4.6 fold (0.073 ± 0.016 μM) and 3 fold (0.048 ± 0.009 μM) reduction is susceptibility against the Y140F and Y140H mutant strains respectively. […] Again we observed 8.3 fold (3.3 ± 0.7 μM) and 4 fold (1.6 ± 0.5 μM) reduction in susceptibility to FQZ in the Y140F and Y140H mutant strains respectively.
(§2) The susceptibilities of strains overexpressing wild type ScErg11p6×His and ScErg11p6×His Y140F/H to CYP51 inhibitors were measured as MIC50 values using broth microdilution assays as described previously.[21] The MIC50s were defined as the concentration of drug required for 50% growth inhibition compared to no drug controls.

[3] = test system: S. cerevisiae AD3Δ overexpressing ScErg11p6×His Y140H, native ERG11 deleted; assay: MIC50 broth microdilution, strain overexpressing ScErg11p6×His Y140H; type: cell-based, Saccharomyces cerevisiae; details: for fold reduction in susceptibility in Y140H mutant strain: MIC50 Y140H strain versus AD3Δ wild type overexpressing strain
Experimental: as §1, §2

[4] = test system: S. cerevisiae AD3Δ overexpressing ScErg11p6×His Y140F, native ERG11 deleted; assay: MIC50 broth microdilution, strain overexpressing ScErg11p6×His Y140F; type: cell-based, Saccharomyces cerevisiae; details: for fold reduction in susceptibility in Y140F mutant strain: MIC50 Y140F strain versus AD3Δ wild type overexpressing strain
Experimental: as §1, §2

[5] = test system: S. cerevisiae AD2Δ host strain (native ERG11 retained); assay: MIC50 broth microdilution, AD2Δ host strain with native ERG11 retained; type: cell-based, Saccharomyces cerevisiae
Experimental: as §1, §2

[6] = AD3Δ, ScErg11p6×His overexpressed from PDR5 locus, native ERG11 deleted, mean ± standard error
[7] = Y140H, ScErg11p6×His Y140H overexpressed from PDR5 locus, native ERG11 deleted, mean ± standard error
[8] = Y140F, ScErg11p6×His Y140F overexpressed from PDR5 locus, native ERG11 deleted, mean ± standard error
[9] = AD2Δ host, native ERG11 retained, mean ± standard error

T1 sequence (P10614 whole entry): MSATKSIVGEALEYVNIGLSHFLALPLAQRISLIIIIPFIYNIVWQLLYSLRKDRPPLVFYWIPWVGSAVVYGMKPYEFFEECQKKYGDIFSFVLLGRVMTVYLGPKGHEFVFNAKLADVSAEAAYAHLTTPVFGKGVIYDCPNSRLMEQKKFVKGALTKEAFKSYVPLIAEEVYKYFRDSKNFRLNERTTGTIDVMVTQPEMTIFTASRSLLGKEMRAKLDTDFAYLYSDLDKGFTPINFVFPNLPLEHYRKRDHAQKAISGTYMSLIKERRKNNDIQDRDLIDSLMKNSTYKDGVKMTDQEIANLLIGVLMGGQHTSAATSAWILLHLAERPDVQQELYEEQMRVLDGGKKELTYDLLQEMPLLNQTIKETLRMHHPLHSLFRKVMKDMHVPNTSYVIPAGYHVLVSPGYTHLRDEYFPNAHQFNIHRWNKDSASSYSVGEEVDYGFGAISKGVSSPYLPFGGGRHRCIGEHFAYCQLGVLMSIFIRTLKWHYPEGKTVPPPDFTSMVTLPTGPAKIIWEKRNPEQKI

Row | Compound | Kd [1] | [Azole]0.5 [1] | type of binding (difference spectra) [1] | MIC50 ([2]; Saccharomyces cerevisiae) | fold reduction in susceptibility in Y140H mutant strain [3] | MIC50 ([3]; Saccharomyces cerevisiae) | fold reduction in susceptibility in Y140F mutant strain [4] | MIC50 ([4]; Saccharomyces cerevisiae) | MIC50 ([5]; Saccharomyces cerevisiae) | Induced spectral shift on ligand binding Wavelength [1] | MIC50 [2, 6] | MIC50 [3, 7] | MIC50 [4, 8] | MIC50 [5, 9] | further results
1 | CCCN(CCOc1c(Cl)cc(Cl)cc1Cl)C(=O)n1ccnc1 [Prochloraz, prochloraz] | 27 ± 24 nM | 0.30 µM | type II binding | 1.9 ± 0.5 µM (≈ 0.716 µg/mL) | 3.5 fold | 6.7 ± 0.7 µM (≈ 2.52 µg/mL) | 2.3 fold | 4.3 ± 0.8 µM (≈ 1.62 µg/mL) | 0.25 ± 0.02 µM (≈ 0.0942 µg/mL) |  |  |  |  |  | mode of inhibition [1]: non-competitive inhibitors; Induced spectral shift on ligand binding Wavelength ([1]; listed as PRZ): 417 nm to ~421
2 | O=c1[nH]cnn1CC(O)(Cc1ccccc1Cl)C1(Cl)CC1 (stereo not drawn) [R-Oxo-prothioconazole, R-oxo-prothioconazole] |  |  | neither type I nor type II binding |  |  |  |  |  |  | 417(-) nm | 80 ± 2 µM (≈ 26.3 µg/mL) | 95 ± 5 µM (≈ 31.2 µg/mL) | 87 ± 7 µM (≈ 28.6 µg/mL) | 75.0 ± 3.0 µM (≈ 24.6 µg/mL) | 
3 | O=c1[nH]cnn1CC(O)(Cc1ccccc1Cl)C1(Cl)CC1 (stereo not drawn) [S-Oxo-prothioconazole, S-oxo-prothioconazole] |  |  | neither type I nor type II binding |  |  |  |  |  |  | 417(-) nm | 84 ± 3 µM (≈ 27.6 µg/mL) | 97 ± 3 µM (≈ 31.8 µg/mL) | 87 ± 7 µM (≈ 28.6 µg/mL) | 75.0 ± 0.0 µM (≈ 24.6 µg/mL) | 
4 | O[C@](Cc1ccccc1Cl)(Cn1cncn1)C1(Cl)CC1 [R-Prothioconazole-desthio, R-prothioconazole-desthio] | 54 ± 31 nM | 0.33 µM | type II binding | 3.2 ± 0.2 µM (≈ 0.999 µg/mL) | 2.3 fold | 7.5 µM (≈ 2.34 µg/mL) | 2.3 fold | 7.5 µM (≈ 2.34 µg/mL) | 0.47 ± 0.05 µM (≈ 0.147 µg/mL) |  |  |  |  |  | 
5 | CC(C)(C)[C@](O)(CCc1ccc(Cl)cc1)Cn1cncn1 [R-Tebuconazole, R-tebuconazole] | 65 ± 35 nM | 0.30 µM | type II binding | 1.1 ± 0.3 µM (≈ 0.339 µg/mL) |  | 5.2 ± 1.3 µM (≈ 1.6 µg/mL) |  | 2 ± 0.2 µM (≈ 0.616 µg/mL) | 0.12 µM (≈ 0.0369 µg/mL) |  |  |  |  |  | 
6 | OC(Cc1ccccc1Cl)(Cn1nc[nH]c1=S)C1(Cl)CC1 (stereo not drawn) [S-Prothioconazole, S-prothioconazole] |  |  |  |  |  |  |  |  |  | 417 (-) nm | 0.28 ± 0.02 µM (≈ 0.0964 µg/mL) | 1.2 ± 0.2 µM (≈ 0.413 µg/mL) | 0.93 ± 0.0 µM (≈ 0.32 µg/mL) | 0.077 ± 0.003 µM (≈ 0.0265 µg/mL) | fold more active than the R enantiomer (MIC50) [2]: 57 fold; fold reduction in susceptibility in Y140H mutant strain ([3]; listed as S-PTZ): 4.3 fold
7 | O=c1[nH]cnn1CC(O)(Cc1ccccc1Cl)C1(Cl)CC1 (stereo not drawn) [oxo-PTZ, oxo-prothioconazole] |  |  |  |  |  |  |  |  |  | absence of a spectral shift |  |  |  |  | 
8 | O=c1c2cc(F)ccc2nc(-n2cncn2)n1-c1ccc(Cl)cc1Cl [Fluquinconazole, fluquinconazole] | 15 ± 21 nM | 0.31 µM | type II binding | 0.4 ± 0.05 µM (≈ 0.15 µg/mL) | 4 fold | 1.6 ± 0.5 µM (≈ 0.602 µg/mL) | 8.3 fold | 3.3 ± 0.7 µM (≈ 1.24 µg/mL) | 0.17 ± 0.02 µM (≈ 0.064 µg/mL) |  |  |  |  |  | mode of inhibition [1]: non-competitive inhibitors; Induced spectral shift on ligand binding Wavelength ([1]; listed as FQZ): 417 nm to ~421
9 | O[C@@](Cc1ccccc1Cl)(Cn1cncn1)C1(Cl)CC1 [S-Prothioconazole-desthio, S-prothioconazole-desthio] | 102 ± 45 nM | 0.42 µM | type II binding | 0.0157 ± 0.0003 µM (≈ 0.0049 µg/mL) | 3 fold | 0.048 ± 0.009 µM (≈ 0.015 µg/mL) | 4.6 fold | 0.073 ± 0.016 µM (≈ 0.0228 µg/mL) | 0.006 ± 0.001 µM (≈ 0.00187 µg/mL) |  |  |  |  |  | fold more active than the R enantiomer (MIC50) [2]: 200 fold
10 | CC(C)(C)C(O)(CCc1ccc(Cl)cc1)Cn1cncn1 (stereo not drawn) [TBZ, tebuconazole] |  |  |  |  |  |  |  |  |  | 417 nm to ~421 |  |  |  |  | mode of inhibition [1]: non-competitive inhibitors
11 | OC(Cc1ccccc1Cl)(Cn1nc[nH]c1=S)C1(Cl)CC1 (stereo not drawn) [R-Prothioconazole, R-prothioconazole] |  |  |  |  |  |  |  |  |  | 417 (-) nm | 16 ± 3 µM (≈ 5.51 µg/mL) | 31 ± 4 µM (≈ 10.7 µg/mL) | 16 ± 4 µM (≈ 5.51 µg/mL) | 5.2 ± 1.3 µM (≈ 1.79 µg/mL) | fold reduction in susceptibility in Y140H mutant strain ([3]; listed as R-PTZ): 2 fold; fold reduction in susceptibility in Y140F mutant strain ([4]; listed as R-PTZ): no change
12 | CC(C)(C)[C@@](O)(CCc1ccc(Cl)cc1)Cn1cncn1 [S-Tebuconazole, S-tebuconazole] | 115 ± 44 nM | 0.33 µM | type II binding | 0.073 ± 0.015 µM (≈ 0.0225 µg/mL) | 11.9 fold | 0.87 ± 0.06 µM (≈ 0.268 µg/mL) | 8.7 fold | 0.64 ± 0.11 µM (≈ 0.197 µg/mL) | 0.0197 ± 0.0003 µM (≈ 0.00606 µg/mL) |  |  |  |  |  | fold more active than the R enantiomer (MIC50) [2]: 15 fold
13 | CC1COC(Cn2cncn2)(c2ccc(Oc3ccc(Cl)cc3)cc2Cl)O1 (stereo not drawn) [Difenoconazole, difenoconazole] |  |  |  | 0.047 ± 0.009 µM (≈ 0.0191 µg/mL) | 5 fold | 0.237 ± 0.003 µM (≈ 0.0963 µg/mL) | 5.2 fold | 0.243 ± 0.003 µM (≈ 0.0987 µg/mL) | 0.0147 ± 0.0003 µM (≈ 0.00597 µg/mL) |  |  |  |  |  | 
